Ten molecules from patent US10662203B2, “Pyrido[2,3-b]indole compounds for the treatment and prophylaxis of bacterial infection” (Hoffmann-La Roche Inc., priority 2017, dated 2020) can be followed below.

One data set relates to A. baumannii (ATCC17978). Nature of the data set: 50% growth inhibitory concentration (IC50) determination assay. To be noted: Acinetobacter baumannii, ATCC17978, A. baumannii ATCC17978; Iso-Sensitest broth; 0.098 = detection limit. The data set is classed as cell-based. The procedure, abridged: (§1)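 Each strain, inoculated at ~5×10^5 CFU/mL in Iso-Sensitest broth, faces a two-fold compound series spanning 50 to 0.097 μM final concentration. Incubation proceeds at 35±2° C, and cell growth is tracked by absorbance at λ=600 nm every 20 minutes over 16 h.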

Data set [1] relates to multiple species and strains. Description: Minimal inhibitory concentration (MIC) and MIC90 determination, broth microdilution (CLSI M07-A10). To be noted: S9: P. aeruginosa ATCC BAA-2113. On the procedure: Minimal Inhibitory Concentration (MIC) and MIC90 Determination:
The MIC of antibacterial compounds against multiple species and strains was determined using the broth microdilution method according to M07-A10 Clinical and Laboratory Standards Institute (CLSI) guidelines (CLSI (2015) Methods for dilution antimicrobial susceptibility tests for bacteria that grow aerobically; Approved Standard, Tenth Edition. CLSI Document M7-A10 (ISBN 1-56238-987-4). Wayne, Pa.: Clinical and Laboratory Standards Institute, 19087, USA.). In short, bacterial strain preparation was performed on D1 and D2. […] 5-10 well-isolated colonies of similar morphology were selected and re-streaked onto fresh agar plates using sterile loops and incubated for 20-24 hr at 35±2° C. Bacterial strains were subcultured two times to ensure fresh inoculums for MIC screening. […] Alternatively, 1-2 colonies were transferred into 500 μL of saline and OD600 was adjusted to ˜0.1 using an OD meter. Bacterial inoculum was diluted by 1:280 for Gram-positive strains and 1:400 for Gram-negative strains into corresponding medium broth (CAMHB, CAMHB+3% lysed horse blood, HTM) (e.g. 35.6 μL of inoculum into 10 mL of CAMHB or 25 μL of inoculum into 10 mL of CAMHB). […] Compound stock concentration=[(highest testing concentration)×100 μL/2 μL] (e.g. if the required highest testing concentration is 64 μg/mL in assay plates, stock concentration=64 μg/mL×100 μL/2 μL=3.2 mg/mL). […] of each well was transferred in a new MTP, which served as the test plate by subsequent inoculation. The bacterial suspension prepared above is dispensed at 98 μL/well within 15 minutes after preparation. Negative controls (lack of bacterial cells) and growth control wells (lack of compound) were included in all plates. MTPs were incubated for 18-24 hours at 35±2° C. in ambient air. The MIC was recorded and CFUs were calculated on Day 4. The assay plate was placed on the top of MIC reader, and the magnification mirror was adjusted to read each wells, recording growth status as raw data. Photo images of each assay plates were recorded using Q Count 530 (Spiral Biotech). The MIC value of each compound, expressed as […], was determined as the lowest concentration required for complete growth inhibition (no visible growth).
Background: In broth dilution the organism is exposed to a series of concentrations in liquid medium.

For data set [2], the system named is K. pneumoniae (ATCC10031). Description: 50% growth inhibitory concentration (IC50) determination assay. The data set is classed as cell-based. Conditions: Klebsiella pneumoniae, Iso-Sensitest broth, 0.098 = detection limit. The method in brief:
as §1

In another data set the test system is S. aureus (ATCC29213). The description is as above. The data set is classed as cell-based. Conditions: Staphylococcus aureus, Iso-Sensitest broth, 0.098 = detection limit. The procedure, abridged:
as §1

The nature of data set [3]: Lyophilisation solubility assay (LYSA). To be noted: phosphate buffer, pH 6.5, aqueous buffer, thermodynamic from solid, 0.05 M phosphate buffer, HPLC-UV. The data set is classed as physicochemical. The procedure, abridged: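 Read-out is HPLC-UV of the filtered solution and its 1/10 dilution. The dried residue of a 10 mM DMSO stock was redissolved in 0.05 M pH 6.5 phosphate buffer, then stirred 1 h, shaken 2 h and held overnight. Run in duplicate.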

The nature of data set [4]: Cytotoxicity assay (HepG2, CellTiter-Blue cell viability). To be noted: human; HepG2 cells, 3 days treatment; "*": the detection limit; read-out: CC50. It counts as cell-based. The procedure, abridged: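 HepG2 cells (1.2×10^4 per well) exposed to compounds for 3 days; viability then read by CellTiter-Blue fluorescence after 3 h at 37 °C. CC50 from four-parameter logistic fit.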

Data set [5] in a line: Single dose PK study (SDPK) in female CD-1 mouse. The data set is classed as in vivo. To be noted: MOUSE IV, 1.0 mg/kg-Solution; for clearance: female, CD-1, plasma, read-out: CL total. The procedure:
Single Dose PK Study (SDPK) in Female CD-1 Mouse: The single dose PK in female CD-1 mouse was performed to assess compound's pharmacokinetic properties. One group of animals were dosed via bolus intravenous (IV) of the respective compound. Blood samples (approximately 30 μL) were collected via saphenous vein at 5 mins, 15 min, 30 min, 1 hr, 2 hr, 4 hr and 7 hr. For last time point (24 hr), samples were collected via cardiac puncture while the mouse was under anesthesia. Blood samples were placed into tubes containing EDTA-K2 anticoagulant (2 μL of 0.5M per tube) and centrifuged at 3000 rpm for 10 minutes at 4° C. within half an hour to separate plasma from the samples. Following centrifugation, plasma samples were stored in polypropylene tubes, quick frozen over dry ice and kept at −70±10° C. until LC/MS/MS analysis. The pharmacokinetic parameters were calculated using non-compartmental module of WinNonlin® Professional 6.4.

Converted amounts (≈) assume the structure as drawn. A value given as a limit tells only on which side of the number the result lay.

By IC50 is commonly meant the concentration that inhibits the measured activity by half. A lower IC50 goes with greater potency. With `CNc1cc(F)c(F)c2c1[nH]c1ncc(-c3cnc4c(c3)c(=O)c(C(=O)O)cn4C)c(N3CC4C(N(C)C)CO[C@@H]4C3)c12` (stereo partly drawn) [Example 1.286], the concentration for half-maximal inhibition (IC50) in the data set with A. baumannii (ATCC17978) is 0.143 µM. Further, in data set [1], the “MIC S9” value was 3.973.
A word on the solubility (thermodynamic): it is the concentration in solution at equilibrium with solid. As a reminder, the CC50 is the concentration giving 50% cytotoxicity. For `CNc1cc(F)c(F)c2c1[nH]c1ncc(-c3cnc4c(c3)c(=O)c(C(=O)O)cn4NC)c(N3CC[C@H]4CN(C)C[C@H]43)c12` [Example 3.01A, 6-[5,6-difluoro-8-(methylamino)-4-[(3aS,6aS)-5-methyl-2,3,3a,4,6,6a-hexahydropyrrolo[2,3-c]pyrrol-1-yl]-9H-pyrido[2,3-b]indol-3-yl]-1-(methylamino)-4-oxo-1,8-naphthyridine-3-carboxylic acid], the figures for the IC50 (in the data set on A. baumannii (ATCC17978); in data set [2]; in the data set with S. aureus (ATCC29213)) were 0.034 µM, < 0.098 µM and < 0.098 µM, respectively. Besides, the solubility (thermodynamic) in data set [3] is 264 µg/mL (≈ 459 µM). Further, the CC50 at 3 days in data set [4] turned out to be 54100 nM. Besides, the AUC total in data set [5] worked out at 195.4 ng·h/mL. Besides, the clearance in data set [5] was found to be 81.9 mL/min/kg. The “MIC S9” value in data set [1] is on record as 1.796.
As to `CNc1cc(F)c(C#N)c2c1[nH]c1ncc(-c3cnc4c(c3)c(=O)c(C(=O)O)cn4C)c(N3CC[C@H]4CN(C)CC43)c12` (stereo partly drawn) [Example 1.274], the IC50 in the data set with A. baumannii (ATCC17978) came out at 0.117 µM. Also, in data set [3], the thermodynamic solubility came to 118 µg/mL (≈ 208 µM). Also, the “MIC S9” value in data set [1] is 8.508.
Regarding `CNc1cc(F)c(F)c2c1[nH]c1ncc(-c3cnc4c(c3)c(=O)c(C(=O)O)cn4NC)c(N3CC[C@H]4CN(C)CC43)c12` (stereo partly drawn) [Example 1.189], the results for the 50% inhibitory concentration (IC50) (in the data set with A. baumannii (ATCC17978); in data set [2]; in the data set with S. aureus (ATCC29213)) were 0.095 µM, < 0.098 µM and < 0.098 µM, respectively. In data set [3], this molecule displayed a thermodynamic solubility of 255 µg/mL (≈ 444 µM). In addition, the CC50 at 3 days in data set [4] worked out at 41200 nM. Further, the “MIC S9” value in data set [1] is listed as 4.304.
For the molecule `CNc1cc(F)c(F)c2c1[nH]c1ncc(-c3cnc4c(c3)c(=O)c(C(=O)O)cn4C)c(N3CC[C@H]4CN(C)CC43)c12` (stereo partly drawn) [Example 1.85], the IC50 was 0.089 µM in the data set on A. baumannii (ATCC17978), < 0.098 µM in data set [2] and < 0.098 µM in the data set with S. aureus (ATCC29213). The solubility (thermodynamic) in data set [3] stood at 101 µg/mL (≈ 180 µM). Also, the CC50 at 3 days in data set [4] turned out to be 35200 nM. This molecule also came in with an AUC total in data set [5] of 177.0 ng·h/mL. Moreover, in data set [5], the clearance amounted to 94.8 mL/min/kg. Also, the “MIC S9” value in data set [1] is reported as 6.995.
In the case of `CNc1cc(F)c(C#N)c2c1[nH]c1ncc(-c3cnc4c(c3)c(=O)c(C(=O)O)cn4C)c(N3CC[C@H]4CN(C)C[C@H]43)c12` [Example 1.298], in data set [5], the AUC total was found to be 274.0 ng·h/mL and the clearance amounted to 62.7 mL/min/kg. In data set [1], the “MIC S9” value is on record as 17.016.
On to `CNc1cc(F)c(F)c2c1[nH]c1ncc(-c3cnc4c(c3)c(=O)c(C(=O)O)cn4C)c(N3CC[C@H]4CN(C)C[C@H]43)c12` [Example 3.03A], for which the IC50 in the data set on A. baumannii (ATCC17978) is 0.039 µM; in data set [2], < 0.098 µM; in the data set on S. aureus (ATCC29213), < 0.098 µM. For the same molecule, in data set [3], the solubility (thermodynamic) is 137 µg/mL (≈ 245 µM). Further, the CC50 at 3 days in data set [4] was found to be 38400 nM. The AUC total in data set [5] came to 249.6 ng·h/mL. For the same molecule, the clearance in data set [5] came out at 66.9 mL/min/kg. Moreover, in data set [1], the “MIC S9” value is 1.749.
Turning to `CNc1cc(F)cc2c1[nH]c1ncc(-c3cnc4c(c3)c(=O)c(C(=O)O)cn4NC)c(N3CC[C@H]4CN(C)C[C@H]43)c12` [Example 3.05A], the IC50 is 0.055 µM in the data set with A. baumannii (ATCC17978), < 0.098 µM in data set [2] and < 0.098 µM in the data set on S. aureus (ATCC29213). The solubility (thermodynamic) in data set [3] stood at 535 µg/mL (≈ 961 µM). Also, the CC50 at 3 days in data set [4] turned out to be 54500 nM. Moreover, in data set [5], the AUC total came to 356.4 ng·h/mL. The clearance in data set [5] was 50.5 mL/min/kg. Besides, the “MIC S9” value in data set [1] came to 6.957.
As for `CNc1cc(F)c(F)c2c1[nH]c1ncc(-c3cnc4c(c3)c(=O)c(C(=O)O)cn4C)c(N3CCC[C@H]3CN(C)C)c12` [Example 1.14], the IC50 is 0.154 µM in the data set with A. baumannii (ATCC17978), < 0.098 µM in data set [2] and < 0.098 µM in the data set on S. aureus (ATCC29213). Moreover, the solubility (thermodynamic) in data set [3] was found to be 407 µg/mL (≈ 725 µM). In addition, the CC50 at 3 days in data set [4] was determined as 29100 nM. Further, the “MIC S9” value in data set [1] is on record as 7.02.
Turning to `CNc1cc(F)c(C#N)c2c1[nH]c1ncc(-c3cnc4c(c3)c(=O)c(C(=O)O)cn4NC)c(N3CC[C@H]4CN(C)CC43)c12` (stereo partly drawn) [Example 1.275], inhibition in the data set with A. baumannii (ATCC17978) was half-maximal at 0.281 µM (IC50). Also, in data set [1], the “MIC S9” value was 4.348.
